In the assay the target is P. falciparum apicoplast DNA polymerase (Pf-apPOL) (Plasmodium falciparum, UniProt Q8ILY1). Nature of the assay: Fluorescence-based high-throughput DNA polymerase assay (molecular beacon), primary screen and dose-response.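 As to % inhibition ApPOL 90': test concentration in µM.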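 As to % inhibition apPOL 180': test concentration in µM.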 The conditions noted are these: for DNA Pol: 90 min, 10 µM; for IC50: supplemental file 2, sheet IC50 nontoxic compounds, Pf-apPOL. The assay is classed as biochemical. The procedure, abridged: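 Single-point screening used 10 µM compound with 20 nM polymerase, 20 nM hairpin substrate and 6 µM dNTPs for 90 min at 25 °C. Confirmatory titrations (2.5–80 µM) followed fluorescence at three times, and IC50 was derived from a fit including a cooperativity term n.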
P. falciparum apicoplast DNA polymerase (Pf-apPOL), sequence (Q8ILY1 entry or part of it): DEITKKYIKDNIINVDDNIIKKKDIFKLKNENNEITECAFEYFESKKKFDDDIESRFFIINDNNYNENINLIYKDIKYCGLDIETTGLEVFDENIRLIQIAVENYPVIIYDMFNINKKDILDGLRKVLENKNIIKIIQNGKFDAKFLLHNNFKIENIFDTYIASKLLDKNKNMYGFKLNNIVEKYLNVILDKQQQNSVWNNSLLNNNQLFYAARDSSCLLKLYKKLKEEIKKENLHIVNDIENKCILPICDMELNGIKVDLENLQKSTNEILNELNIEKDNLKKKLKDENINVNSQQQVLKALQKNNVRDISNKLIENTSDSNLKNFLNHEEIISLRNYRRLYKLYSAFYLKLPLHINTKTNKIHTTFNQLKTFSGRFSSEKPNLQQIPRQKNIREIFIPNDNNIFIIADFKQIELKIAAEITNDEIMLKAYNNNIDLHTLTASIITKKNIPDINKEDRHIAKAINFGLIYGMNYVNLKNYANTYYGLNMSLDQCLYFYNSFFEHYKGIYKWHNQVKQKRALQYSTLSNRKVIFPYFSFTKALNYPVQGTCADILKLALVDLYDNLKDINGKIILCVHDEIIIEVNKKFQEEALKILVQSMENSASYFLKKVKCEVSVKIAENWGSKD

[1] abbreviates: primary screen value by plate and well.
[2] abbreviates: primary screen value of the 186 hits, unit not given.

As to `COc1ccc(NC(=O)Cn2ccc3c(=O)[nH]ccc32)cc1` [Molecule 13, COc1ccc(cc1)NC(=O)Cn1ccc2c1cc[nH]c2=O], the “% inhibition Apo pol 10'” value reads like this: (DRC-1, concentration 2.5) 9.9864%; (DRC-1, concentration 5) 32.1099%; (DRC-1, concentration 10) 65.6259%; (DRC-1, concentration 20) 81.849%; (DRC-1, concentration 40) 89.1437%; (DRC-1, concentration 80) 82.2361%. The “% inhibition Apol 90'” value runs as follows: (DRC-1, concentration 2.5) 1.393%; (DRC-1, concentration 5) 18.8368%; (DRC-1, concentration 10) 50.5955%; (DRC-1, concentration 20) 73.6159%; (DRC-1, concentration 40) 87.1809%; (DRC-1, concentration 80) 85.204%. Further, the “% inhibition apPOL 180'” value was -3.687% (DRC-1, concentration 2.5); 7.549% (DRC-1, concentration 5); 35.4263% (DRC-1, concentration 10); 60.6819% (DRC-1, concentration 20); 82.9961% (DRC-1, concentration 40); 83.4711% (DRC-1, concentration 80). The “% inhibition apPOL 180'” value reads like this: (DRC-2, concentration 2.5) -2%; (DRC-2, concentration 5) 7%; (DRC-2, concentration 10) 27%; (DRC-2, concentration 20) 63%; (DRC-2, concentration 40) 74%; (DRC-2, concentration 80) 76%. The “% inhibition apPOL 180'” value (conc. 5, DRC-2) came to 7%. The “% inhibition Apo pol 5'” value is, setting by setting: (DRC-2, concentration 2.5) 7%; (DRC-2, concentration 5) 18%; (DRC-2, concentration 10) 37%; (DRC-2, concentration 20) 47%; (DRC-2, concentration 40) 45%; (DRC-2, concentration 80) 40%. Also, the “% inhibition Apo pol 5'” value (conc. 2.5, DRC-2) was found to be 7%. Further, the “% inhibition Apol 40'” value runs as follows: (DRC-2, concentration 2.5) 5.45%; (DRC-2, concentration 5) 19%; (DRC-2, concentration 10) 41%; (DRC-2, concentration 20) 65%; (DRC-2, concentration 40) 67%; (DRC-2, concentration 80) 65%. The “% inhibition Apol 40'” value (conc. 20, DRC-2) came to 65% and the “% inhibition Apol 40'” value (conc. 80, DRC-2) is given as 65%. The “% inhibition ApPOL 90'” value was 4% (DRC-2, concentration 2.5); 16% (DRC-2, concentration 5); 38% (DRC-2, concentration 10); 66% (DRC-2, concentration 20); 72% (DRC-2, concentration 40); 70% (DRC-2, concentration 80). The “DNA Pol” value came out at 53 under setting [1] and 53 under setting [2].
As for `COc1ccc(NC(=O)Cn2ccc3c(=O)[nH]ccc32)cc1` [Molecule 13], the half-inhibitory concentration (IC50) is 7.09 µM.
The same measure, in the same setting: the result for `Cc1ccc(NC(=O)C2CCN(C(=O)c3cc4ccsc4[nH]3)CC2)c(Br)c1` [Molecule 14] reads 6.6 µM.
For `COc1ccc(C)cc1NC(=O)Cn1ccc2c(=O)[nH]ccc21` [Molecule 15, COc1ccc(cc1NC(=O)Cn1ccc2c1cc[nH]c2=O)C], the “% inhibition Apo pol 10'” value is on record as 1.7584% (DRC-1, concentration 2.5); 31.9729% (DRC-1, concentration 5); 59.9251% (DRC-1, concentration 10); 81.9832% (DRC-1, concentration 20); 82.3162% (DRC-1, concentration 40); 74.4719% (DRC-1, concentration 80). In addition, the “% inhibition Apol 90'” value is given as -2.786% (DRC-1, concentration 2.5); 18.8368% (DRC-1, concentration 5); 46.9508% (DRC-1, concentration 10); 77.5716% (DRC-1, concentration 20); 84.7552% (DRC-1, concentration 40); 84.8173% (DRC-1, concentration 80). Further, the “% inhibition apPOL 180'” value is given as -5.413% (DRC-1, concentration 2.5); 6.847% (DRC-1, concentration 5); 30.4146% (DRC-1, concentration 10); 67.1672% (DRC-1, concentration 20); 81.3984% (DRC-1, concentration 40); 86.595% (DRC-1, concentration 80). Besides, the “% inhibition apPOL 180'” value is on record as -8% (DRC-2, concentration 2.5); 12% (DRC-2, concentration 5); 58% (DRC-2, concentration 10); 66% (DRC-2, concentration 20); 72% (DRC-2, concentration 40); 64% (DRC-2, concentration 80). In addition, the “% inhibition apPOL 180'” value was 66% (conc. 20, DRC-2) and 64% (conc. 80, DRC-2). In addition, the “% inhibition Apo pol 5'” value came to 1.82% (DRC-2, concentration 2.5); 24% (DRC-2, concentration 5); 47% (DRC-2, concentration 10); 44% (DRC-2, concentration 20); 34% (DRC-2, concentration 40); 8% (DRC-2, concentration 80). The “% inhibition Apo pol 5'” value (conc. 5, DRC-2) amounted to 24%. Also, the “% inhibition Apol 40'” value (DRC-2, concentration 2.5) is 0.779%; the “% inhibition Apol 40'” value (DRC-2, concentration 5) was 28%; the “% inhibition Apol 40'” value (DRC-2, concentration 10) stood at 63%; the “% inhibition Apol 40'” value (DRC-2, concentration 20) turned out to be 65%; the “% inhibition Apol 40'” value (DRC-2, concentration 40) is listed as 60%; the “% inhibition Apol 40'” value (DRC-2, concentration 80) came to 46%. Besides, the “% inhibition ApPOL 90'” value runs as follows: (DRC-2, concentration 2.5) -0.827%; (DRC-2, concentration 5) 24%; (DRC-2, concentration 10) 64%; (DRC-2, concentration 20) 67%; (DRC-2, concentration 40) 66%; (DRC-2, concentration 80) 55%. Moreover, the “% inhibition ApPOL 90'” value runs as follows: (conc. 5, DRC-2) 24%; (conc. 10, DRC-2) 64%; (conc. 40, DRC-2) 66%. Further, the “DNA Pol” value under setting [1] is recorded as 73 and the “DNA Pol” value under setting [2] was found to be 73.
In the case of `COc1ccc(C)cc1NC(=O)Cn1ccc2c(=O)[nH]ccc21` [Molecule 15], the IC50 came out at 7.23 µM.

The values are drawn from publication PMC9090415, “Discovery of small molecule inhibitors of Plasmodium falciparum apicoplast DNA polymerase” (Journal of Enzyme Inhibition and Medicinal Chemistry, 2022).
